Experimental data taken from US11110070B2 (priority 2015, dated 2021).
Entries after “also recorded” stand apart in the source; their conditions may differ. Read-outs that look alike come from different tables or passages of the source.

Tests used:
animals = conditions: in vivo, ip; cited from earlier work
129S6/SvEvTac mice [1] = assay: Dominant interaction test after SD; assay type: in vivo
Experimental: (§1) Adult aggressor CD-1 male mice were single-housed in Macrolon® polycarbonate resin cages (15.25 in×7.8 in×9.5 in) (Animal Care Systems, Inc., Centennial, Colo.). Male 129S6/SvEvTac mice (9 weeks of age) were subsequently placed into the resident. CD-1 mouse's cage. Three antagonistic encounters were allowed between the CD-1 mouse and the intruder. Each of these encounters typically lasted less than 5 min. Following the encounters, mice were separated by a polished stainless steel cage divider (Animal Care Systems, Inc., Centennial, Colo., P/N C79171), which allowed for olfactory and auditory communication, but limited visual or tactile contact. The partition was removed daily for 2 weeks and 3 antagonistic encounters were allowed between the mice each day. This procedure consistently yielded a submissive phenotype in the experimental intruder mice. Control (Ctrl) mice were group housed 4 to 5 per cage in Macrolon® polycarbonate resin cages without dividers.
Dominant interaction was performed as previously described (A12). Briefly, mice were placed into a large open field containing 2 upside-down wire mesh pencil cups. One pencil cup served as a novel object or empty container. The other pencil cup contained the CD-1 aggressor mouse. Mice were placed in the middle of the open field arena and allowed to explore for 10 min. Sessions were videotaped and the first 5 min were later analyzed using behavioral tracking software (TopScan, CleverSys, Reston, Va.).

C57BL/6NTac mice = assay: FST in chronic corticosterone (CORT) model; assay type: in vivo
[2] = Body weight in CORT model; assay type: in vivo, mice; conditions: ketamine 90 mg kg^−1 single injection or fluoxetine 18 mg kg^−1 for 3 weeks, before CORT
129S6/SvEvTac mice [3] = assay: Fighting behavior during SD bouts; assay type: in vivo; conditions: for latency of the CD-1 to attack the 129S6/SvEv mouse: vs SD-Sal
Experimental: as §1

[4] = system: adult hippocampal neurogenesis; assay: Doublecortin and Ki67 immunohistochemistry, dentate gyrus; assay type: in vivo, mice; conditions: for number of Ki67+ cells: ketamine vs saline (FIG. 6K)
Experimental: Mice were deeply anesthetized with ketamine (100 mg kg) and transcardially perfused with IX phosphate buffer saline (PBS), followed by chilled 4% paraformaldehyde (PFA)/IX PBS (A15), Brains were post-fixed overnight in 4% PFA at 4° C., then cryoprotected in 30% sucrose/1× PBS, and stored at 4° C. Serial coronal sections (35 μm) were cut through the entire hippocampus on a cryostat and stored in IX PBS with 0.1% NaN3. Doublecortin (DCX) immunohistochemistry was performed as previously described (A15). For DCX immunohistochemistry, sections were washed in 1× PBS containing 0.5% Triton and then quenched in 0.3% H2O2 in IX PBS/CH3OH (1:1) for 15 min at room temperature. Sections were blocked in 10% normal donkey serum in 1× PBS with 0.5% Triton X-100 for 2 h at room temperature. Incubation with primary antibody was performed at 4° C. overnight (goat anti-DCX, 1:500, Santa Cruz Biotechnology, Santa Cruz, Calif., #SC 8,066) in 1× PBS with 0.5% Triton X-100. Sections were then incubated with a biotinylated secondary antibody (donkey anti-goat; 1:250, Jackson lmmunoResearch, West Grove, Pa.) for 2 h at room temperature. Sections were treated with avidin-biotin-peroxidase complex (ABC Elite Kit, Vector Labs, Burlingame, Calif.) followed by 3,3′ diaminobenzidine as a substrate for staining (Vector, Burlingame, Calif.).
Ki67 immunohistochemistry was performed as previously described (A16). For Ki67 immunohistochemistry, sections were washed in 1× PBS containing 0.5% Triton, and then blocked in 10% normal donkey serum in 1× PBS with 0.5% Triton X-100 for 2 h at room temperature. Incubation with primary antibody was performed at 4° C. overnight (rabbit anti-Ki67, 1:100, Vector Laboratories. Burlingame, Calif., #VP-RM04) in 1× PBS with 0.5% Triton X-100. Sections were then incubated with a biotinylated secondary antibody (donkey anti-rabbit; 1:250, Jackson ImmunoResearch, West Grove, Pa.) for 2 h at room temperature. Sections were treated with avidin-biotin-peroxidase complex (ABC Elite Kit, Vector Labs, Burlingame, Calif.) followed by 3,3′ diaminobenzidine as a substrate for staining (Vector, Burlingame, Calif.).
An investigator blind to treatment used a Zeiss Axioplan-2 upright microscope (Oberkochen, Germany) to count cells bilaterally in the granule cell layer of the dentate gyms throughout the entire rostra-caudal axis of the hippocampus (HPC). Every sixth section throughout the entire extent of the HPC was included in the analysis. Cells were counted bilaterally using a 20× objective. The average cells per section are presented throughout the text.

129S6/SvEvTac mice [5] = assay: Open field (OF) after reinstatement; assay type: in vivo
Experimental: OF protocol was administered as previously described (Richardson-Jones et al., 2010).

129S6/SvEv mice = assay: FST after prophylactic ketamine or ketamine metabolites (FIG. 15); assay type: in vivo; conditions: prophylactic K-injected vs Sal-injected mice
129S6/SvEvTac mice [6] = assay: 1-shock contextual fear conditioning (CFC) in SD experiments; assay type: in vivo; conditions: ketamine after SD
Experimental: The 1-shock CFC procedure was performed as previously published (A15). Briefly, mice were placed into context A and administered a 2-s shock (0.75 mA) 180 s later. Mice were removed from the context 15 s following the termination of shock (at 197 s). For context retrieval, mice were placed back into context A for 180 s. For alternate contexts, mice were placed into the contexts for 180 s.

129S6/SvEvTac mice [7] = assay: Social interaction with a novel mouse after SD; assay type: in vivo; conditions: ketamine 30 mg kg^−1 before SD
Experimental: Mice were placed into a large open field containing 2 upside-down wire mesh pencil cups. One pencil cup served as a novel object or empty container. The other pencil cup contained a novel 129S6/SvEv male mouse. Mice were placed in the middle of the open field arena and allowed to explore for 10 min. Sessions were videotaped and the first 5 min were later analyzed using behavioral tracking software (TopScan, CleverSys, Reston, Va.).

C57BL/6J strain = conditions: cited from earlier work
chronic PTSD = conditions: intravenous infusion; compared with midazolam; cited from earlier work
[8] = SD mice, ketamine 30 mg kg^−1 before SD, vs SD-Sal
[9] = 20 mg kg^−1 following the final SD session

**Q.** With CNC1(c2ccccc2Cl)CCCCC1=O (racemic) [ketamine, (RS)-2-(2-chlorophenyl)-2-(methylamino)cyclohexanone] as the compound, how does the “reaction time to the hot plate test” value (animals) read?
**A.** The value was “increased reaction time to the hot plate test”.

**Q.** And the “time investigating the empty enclosure quadrant” value (129S6/SvEvTac mice [1]; Ctrl mice, ketamine 30 mg kg^−1 vs saline)?
**A.** Its value is “equivalent amount of time investigating the empty enclosure quadrant”.

**Q.** And the “interaction with the CD-1 aggressor mouse” value (129S6/SvEvTac mice [1]; [8])?
**A.** Its value is “significantly increased willingness to interact with the CD-1; also recorded: considerably more time investigating a CD-1 mouse”.

**Q.** What about the “time investigating the empty enclosure quadrant” value (129S6/SvEvTac mice [1]; [8]) of the same compound?
**A.** The value was “significantly less time investigating the empty enclosure quadrant”.

**Q.** What about the “most effective dose in protecting against depressive-like behavior following chronic CORT” value (C57BL/6NTac mice; C57BL/6NTac mice, doses tested 10, 30, 90 mg kg^−1) of the same compound?
**A.** Its value is 90 mg/kg.

**Q.** What about the “persistence of ketamine-induced resilience post-injection” value (C57BL/6NTac mice; CORT model) of the same compound?
**A.** Its value is at least 4 weeks.

**Q.** And the “immobility time on day 2 in the FST” value (C57BL/6NTac mice; ketamine 90 mg kg^−1 or fluoxetine 18 mg kg^−1/day, before 3 weeks of CORT)?
**A.** Its value is “decreased immobility time; also recorded: significantly reduced immobility”.

**Q.** And the “CORT-induced increase in body weight” value [2]?
**A.** The value was “prevented the CORT-induced increase in body weight”.

**Q.** And the “average immobility during week 2 of SD bouts” value (129S6/SvEvTac mice [3]; SD-K vs SD-Sal)?
**A.** The value was “significantly decreased; also recorded: significantly altered”.

**Q.** And the “average immobility time during week 1 of SD bouts” value (129S6/SvEvTac mice [3]; all groups)?
**A.** Its value is “not significantly different”.

**Q.** What about the “latency of the CD-1 to attack the 129S6/SvEv mouse” value (129S6/SvEvTac mice [3]; ketamine 30 mg kg^−1, at the start of SD) of the same compound?
**A.** Its value is “significantly later; also recorded: only differed”.

**Q.** And the “latency of the CD-1 to attack the 129S6/SvEv mouse” value (129S6/SvEvTac mice [3]; ketamine 10 or 90 mg kg^−1)?
**A.** The value was “comparably attacked”.

**Q.** What about the “number of Ki67+ cells” value ([4]; Ctrl mice) of the same compound?
**A.** Its value is “increases”.

**Q.** And the “number of Ki67+ cells” value ([4]; SD mice)?
**A.** Its value is “not in SD mice”.

**Q.** What about the “number of Ki67 cells in the dentate gyrus” value ([4]; ketamine administered after SD) of the same compound?
**A.** Its value is “significantly increases the number of Ki671 cells”.

**Q.** And the DCX levels ([4]; ketamine in post-SD design (FIG. 6L))?
**A.** The DCX levels was “does not alter DCX levels”.

**Q.** What about the “adult hippocampal neurogenesis (levels of doublecortin and Ki67)” value ([4]; prophylactic ketamine before SD) of the same compound?
**A.** The value was “did not observe an effect”.

**Q.** What about the “number of rearing bouts in the OF” value (129S6/SvEvTac mice [5]; ketamine 1 week prior to 1-shock reinstatement, vs saline) of the same compound?
**A.** Its value is “higher number of rearing bouts; also recorded: increased number of rearing bouts”.

**Q.** And the “number of rearing bouts in the OF” value (129S6/SvEvTac mice [5]; ketamine 1 week prior to 3-shock reinstatement)?
**A.** The value was “comparable number of rearing bouts”.

**Q.** And the “immobility in day 2 of the FST” value (129S6/SvEv mice)?
**A.** Its value is “significantly less immobility”.

**Q.** What about the “CFC learning (freezing)” value (129S6/SvEvTac mice [6]) of the same compound?
**A.** The value was “did not impact CFC learning; also recorded: comparable levels of freezing”.

**Q.** And the “social interaction with a novel mouse” value (129S6/SvEvTac mice [7])?
**A.** Its value is “did not find an effect”.

**Q.** What about the social avoidance (C57BL/6J strain; 20 mg kg^−1 administered before SD) of the same compound?
**A.** Its social avoidance is “did not attenuate social avoidance”.

**Q.** And the anhedonia (C57BL/6J strain; [9])?
**A.** Its anhedonia is “not anhedonia”.

**Q.** And the social avoidance (C57BL/6J strain; [9])?
**A.** Its social avoidance is “attenuated social avoidance”.

**Q.** What about the PTSD symptom severity (chronic PTSD) of the same compound?
**A.** The PTSD symptom severity was “significant and rapid reduction in PTSD symptom severity”.
